# Results published in patent US9409952B2, “Peptide-compound cyclization method” (Chugai Seiyaku Kabushiki Kaisha, priority 2011, dated 2016).
# Like-named read-outs stand apart in the source and are kept apart here. Starred links: 1 amine or outer side, 2 acyl side, 3 side chain; linkers in the order of their positions; H or OH if unused. Positions of bridges follow the written chain, without caps; N, C: chain ends. Non-standard residues stand in square brackets, D forms with d. Residues, ends and D or L forms follow the SMILES beside them. *: point of attachment. Phe(3-(CH2)4CO) = O=C([C@H](Cc1cccc(CCCCC(=O)[*:3])c1)N[*:1])[*:2]; Ala(1H-tetrazol-5-yl) = N[C@@H](Cc1nnn[nH]1)C(=O)O; Ala(4-thiazolyl) = N[C@@H](Cc1cscn1)C(=O)O; NMeF = CN[C@@H](Cc1ccccc1)C(=O)O; NMeI = CC[C@H](C)[C@H](NC)C(=O)O; NMeβAla = CN(CCC(=O)[*:2])[*:1]; Aoc(2) = CCCCCC[C@H](N)C(=O)O; NMeL = CN[C@@H](CC(C)C)C(=O)O; NMeV = CN[C@H](C(=O)O)C(C)C; NMeS = CN[C@@H](CO)C(=O)O; NMeA = CN[C@@H](C)C(=O)O; Piperidide = C1CCN(*)CC1; dNMeA = CN[C@H](C)C(=O)O; β3hA = C[C@H](N)CC(=O)O; Abu = CC[C@H](N)C(=O)O; Sar = CNCC(=O)O; tBu = CC(C)(C)*
# Tests used:
# [1] = PAMPA (parallel artificial membrane permeability assay); type: in vitro ADME; conditions: PAMPA
# In short: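 Artificial membrane was 10% (w/v) egg lecithin plus 0.5% (w/v) cholesterol in dodecane on a PVDF filter. A 10 mM DMSO stock was added at 0.5% (v/v) to donor buffer (50 mM MOPSO, pH 6.5, 5.0% glycocholic acid). After 18 h at 37 °C, LC/MS or LC/UV gave donor and acceptor levels for Pe.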
# [2] = Metabolic stability in human hepatic microsome; type: in vitro ADME; conditions: microsomes
# [3] = membrane permeation rate (Pe), 50 mM MOPSO buffer pH 6.5 with 5.0% glycocholic acid, 37° C., 18 hours, read-out: iPAMPA Pe
# [4] = pH 7.4, human hepatic microsome, NADPH(+), read-out: CL NADPH(+)
smiles,measurement,setting,value
CC[C@H](C)[C@@H]1NC(=O)[C@H](CC(C)C)NC(=O)[C@H](C)N(C)C(=O)C[C@@H](C(=O)N2CCCCC2)NC(=O)[C@H](CC(C)C)NC(=O)[C@H](Cc2ccccc2)NC(=O)[C@H](Cc2ccccc2)N(C)C(=O)[C@H](CC(C)C)NC(=O)[C@H]([C@@H](C)O)NC(=O)[C@H](Cc2ccccc2)NC1=O [DP-331] ([NMeA]LIFTL[NMeF]FLD-Piperidide; lactam N-10),"Papp at 18 hours, 50 µM",[1]; [3],0.24 ×10⁻⁶ cm/s
same,microsomal CLint at 1 uM,[2]; [4],198 µL/min/mg
CC(C)C[C@H]1C(=O)N(C)[C@@H](C)C(=O)N[C@@H](C(C)C)C(=O)N[C@H](C(=O)N(C)[C@@H](Cc2ccccc2)C(=O)N[C@@H](C)C(=O)N2CCCCC2)CC(=O)N(C)CCC(=O)N(C)[C@@H](C(C)C)C(=O)N(C)[C@@H](C)C(=O)N[C@@H](Cc2ccccc2)C(=O)N[C@@H]([C@@H](C)O)C(=O)N(C)[C@@H](C)C(=O)N1C [DP-448] ([NMeβAla][NMeV][NMeA]FT[NMeA][NMeL][NMeA]VD[NMeF]A-Piperidide; lactam N-10),"Papp at 18 hours, 50 µM",[1]; [3],6.2 ×10⁻⁶ cm/s
same,microsomal CLint at 1 uM,[2]; [4],27 µL/min/mg
CC(C)C[C@@H]1NC(=O)[C@H](CC(C)C)NC(=O)[C@H](C)N(C)C(=O)C[C@@H](C(=O)N2CCCCC2)NC(=O)[C@H](C(C)C)N(C)C(=O)[C@H](CC(C)C)NC(=O)[C@H](Cc2ccccc2)NC(=O)[C@H]([C@@H](C)O)NC(=O)CN(C)C(=O)[C@H](CC(C)C)NC(=O)[C@H](C)NC1=O [DP-111] ([NMeA]LLAL[Sar]TFL[NMeV]D-Piperidide; lactam N-11),"Papp at 18 hours, 50 µM",[1]; pH 6.5,12 ×10⁻⁶ cm/s
same,microsomal CLint at 1 uM,"[2]; human, pH 7.4, CL NADPH(+)",17 µL/min/mg
CC(C)C[C@H]1C(=O)N[C@@H]([C@@H](C)O)C(=O)N(C)[C@@H](C)C(=O)N[C@H](C(=O)N(C)[C@@H](Cc2ccccc2)C(=O)N[C@@H](C)C(=O)N2CCCCC2)CC(=O)N(C)CCC(=O)N(C)[C@@H](C(C)C)C(=O)N(C)[C@@H](Cc2ccccc2)C(=O)N(C)[C@@H](Cc2ccccc2)C(=O)N[C@@H](C)C(=O)N(C)[C@@H](C)C(=O)N1C [DP-370] ([NMeβAla][NMeV][NMeF][NMeF]A[NMeA][NMeL]T[NMeA]D[NMeF]A-Piperidide; lactam N-10),"Papp at 18 hours, 50 µM",[1]; [3],25 ×10⁻⁶ cm/s
same,microsomal CLint at 1 uM,[2]; [4],36 µL/min/mg
CC[C@H](C)[C@H]1C(=O)N[C@@H](C)C(=O)N(C)[C@@H](CC(C)C)C(=O)N(C)[C@@H](Cc2ccccc2)C(=O)N[C@@H]([C@@H](C)O)C(=O)N(C)[C@@H](Cc2ccccc2)C(=O)N(C)[C@@H](CC(C)C)C(=O)N(C)[C@@H](CC(C)C)C(=O)N[C@H](C(=O)N2CCCCC2)CC(=O)N(C)CC(=O)N1C [DP-147] ([Sar][NMeI]A[NMeL][NMeF]T[NMeF][NMeL][NMeL]D-Piperidide; lactam N-10),"Papp at 18 hours, 50 µM",[1]; pH 6.5,29 ×10⁻⁶ cm/s
same,microsomal CLint at 1 uM,"[2]; human, pH 7.4, CL NADPH(+)",147 µL/min/mg
CCCCCC[C@@H]1NC(=O)[C@H](CO)N(C)C(=O)C[C@H](C)NC(=O)[C@H](CC(C)C)N(C)C(=O)[C@H](CC(C)C)N(C)C(=O)[C@@H](CC(C)C)NC(=O)[C@H](CC)NC(=O)[C@H](CC(C)C)N(C)C(=O)[C@H](C(C)C)NC(=O)[C@H](CC(C)C)N(C)C(=O)CN(C)C1=O [DP-648] (cyclo([Abu][dL][NMeL][NMeL][β3hA][NMeS][Aoc(2)][Sar][NMeL]V[NMeL])),"Papp at 18 hours, 50 µM",[1]; [3],53 ×10⁻⁶ cm/s
same,microsomal CLint at 1 uM,[2]; [4],109 µL/min/mg
CC(C)C[C@@H]1NC(=O)[C@H](CC(C)C)N(C)C(=O)[C@H](C)N(C)C(=O)[C@@H](C(C)C)NC(=O)C[C@@H](C(=O)N2CCCCC2)NC(=O)[C@H](Cc2cscn2)NC(=O)[C@H](C)N(C)C(=O)[C@H](C)N(C)C(=O)[C@H](C)N(C)C(=O)[C@H](Cc2ccccc2)NC(=O)[C@H](Cc2ccccc2)N(C)C1=O [DP-624] ([dV][NMeA][NMeL]L[NMeF]F[NMeA][NMeA][NMeA][Ala(4-thiazolyl)]D-Piperidide; lactam N-11),"Papp at 18 hours, 50 µM",[1]; [3],24 ×10⁻⁶ cm/s
same,microsomal CLint at 1 uM,[2]; [4],30 µL/min/mg
CC[C@H](C)[C@H]1C(=O)N(C)[C@@H](CC(C)C)C(=O)N[C@H](C(=O)N2CCCCC2)Cc2cccc(c2)CCCCC(=O)N[C@@H]([C@@H](C)O)C(=O)N(C)[C@@H](C)C(=O)N(C)[C@@H](Cc2ccccc2)C(=O)N(C)[C@@H](Cc2ccccc2)C(=O)N(C)[C@@H](CC(C)C)C(=O)NCC(=O)N1C [DP-840] (T[NMeA][NMeF][NMeF][NMeL]G[NMeI][NMeL][Phe(3-(CH2)4CO)]-Piperidide; lactam N-9),"Papp at 18 hours, 50 µM",[1]; [3],64 ×10⁻⁶ cm/s
same,microsomal CLint at 1 uM,[2]; [4],357 µL/min/mg
CC(C)C[C@H](NC(=O)[C@@H](NC(=O)[C@@H]1CCCN1C(=O)[C@@H]1CC(=O)N[C@H](C)C(=O)N(C)[C@@H](C)C(=O)N(C)[C@@H](Cc2ccccc2)C(=O)N(C)[C@@H](CC(C)C)C(=O)N[C@@H]([C@@H](C)O)C(=O)N(C)CC(=O)N(C)[C@@H](CC(C)C)C(=O)N[C@@H](COC(C)(C)C)C(=O)N(C)[C@@H](CC(C)C)C(=O)N1)C(C)C)C(=O)N1CCCCC1 [DP-579] ([dA][NMeA][NMeF][NMeL]T[Sar][NMeL]S(tBu)[NMeL]DPVL-Piperidide; lactam N-10),"Papp at 18 hours, 50 µM",[1]; [3],24 ×10⁻⁶ cm/s
same,microsomal CLint at 1 uM,[2]; [4],19 µL/min/mg
CC(C)C[C@H]1NC(=O)[C@H](Cc2ccccc2)N(C)C(=O)[C@H](CC(C)C)N(C)C(=O)[C@H](C)NC(=O)[C@H](CC(C)C)N(C)C(=O)[C@H](Cc2ccccc2)N(C)C(=O)[C@H](Cc2nn[nH]n2)NC(=O)C[C@@H](C(=O)N2CCCCC2)NC(=O)[C@H](CC(C)C)N(C)C(=O)[C@H](CC(C)C)N(C)C1=O [DP-909] ([Ala(1H-tetrazol-5-yl)][NMeF][NMeL]A[NMeL][NMeF][dL][NMeL][NMeL]D-Piperidide; lactam N-10),"Papp at 18 hours, 50 µM",[1]; [3],12 ×10⁻⁶ cm/s
same,microsomal CLint at 1 uM,[2]; [4],15 µL/min/mg
CC(C)C[C@H]1C(=O)N[C@@H]([C@@H](C)O)C(=O)N(C)[C@@H](C)C(=O)N(C)[C@@H](Cc2ccccc2)C(=O)N(C)CC(=O)N[C@@H](C)C(=O)N(C)[C@@H](Cc2ccccc2)C(=O)N(C)[C@@H](CC(C)C)C(=O)N[C@H](C(=O)N2CCCCC2)CC(=O)N(C)[C@H](C)C(=O)N(C)[C@@H](C)C(=O)N1C [DP-419] ([dNMeA][NMeA][NMeL]T[NMeA][NMeF][Sar]A[NMeF][NMeL]D-Piperidide; lactam N-11),"Papp at 18 hours, 50 µM",[1]; [3],6.7 ×10⁻⁶ cm/s
same,microsomal CLint at 1 uM,[2]; [4],17 µL/min/mg
CC[C@H](C)[C@@H]1NC(=O)[C@H](C)N(C)C(=O)CCN(C)C(=O)C[C@@H](C(=O)N2CCCCC2)NC(=O)[C@H](CC(C)C)N(C)C(=O)[C@H](CC(C)C)N(C)C(=O)[C@H](C)N(C)C(=O)[C@H]([C@@H](C)O)NC(=O)[C@H](Cc2ccccc2)N(C)C(=O)[C@H](Cc2ccccc2)N(C)C1=O [DP-140] ([NMeβAla][NMeA]I[NMeF][NMeF]T[NMeA][NMeL][NMeL]D-Piperidide; lactam N-10),"Papp at 18 hours, 50 µM",[1]; [3],61 ×10⁻⁶ cm/s
same,microsomal CLint at 1 uM,[2]; [4],96 µL/min/mg
CC[C@H](C)[C@H]1C(=O)N[C@@H]([C@@H](C)O)C(=O)N(C)CC(=O)N[C@H](C(=O)N2CCCCC2)CC(=O)N[C@H](C(C)C)C(=O)N[C@@H](CC(C)C)C(=O)N(C)[C@@H](CC(C)C)C(=O)N(C)[C@@H](Cc2ccccc2)C(=O)N[C@@H](C)C(=O)N(C)[C@@H](Cc2ccccc2)C(=O)N(C)[C@@H](CC(C)C)C(=O)N1C [DP-232] ([dV]L[NMeL][NMeF]A[NMeF][NMeL][NMeI]T[Sar]D-Piperidide; lactam N-11),"Papp at 18 hours, 50 µM",[1]; [3],18 ×10⁻⁶ cm/s
same,microsomal CLint at 1 uM,[2]; [4],77 µL/min/mg
CC[C@H](C)[C@@H]1NC(=O)[C@H](Cc2ccccc2)NC(=O)[C@H](Cc2ccccc2)N(C)C(=O)CCN(C)C(=O)C[C@@H](C(=O)N2CCCCC2)NC(=O)[C@H](C)NC(=O)[C@H](CC(C)C)N(C)C(=O)[C@H](CC(C)C)N(C)C(=O)CN(C)C(=O)[C@H]([C@@H](C)O)NC(=O)[C@H](C(C)C)N(C)C(=O)[C@@H]2CCCN2C1=O [DP-134] ([NMeβAla][NMeF]FIP[NMeV]T[Sar][NMeL][NMeL]AD-Piperidide; lactam N-12),"Papp at 18 hours, 50 µM",[1]; [3],13 ×10⁻⁶ cm/s
same,microsomal CLint at 1 uM,[2]; [4],18 µL/min/mg
